The values below come from article PMC11493283, “N^4-Hydroxycytidine/molnupiravir inhibits RNA virus-induced encephalitis by producing less fit mutated viruses” (PLOS Pathogens, 2024).

As usually defined, the pEC50 is the negative decadic logarithm of the EC50, by convention in mol/L.

The subject of data set [1] is LACV. In words: MPID-NGS mutation rate of LACV in cell culture. It is filed as cell-based, La Crosse virus. The note with it: Vero cells; RBV, FAV: increase only at 100 μM; NHC also in hNSCs and N2a. How it is done:
(§1) Cells were seeded in 24-well plates (1 × 10^5 cells/well) and infected with LACV (0.1 MOI). At 1 hour post infection (hpi), medium was replaced with fresh medium containing 6 different concentrations for each of the drugs. RBV and FAV were tested at concentrations of 1, 3, 10, 30, 100, and 300 μM, while NHC was tested at concentrations of 0.1, 0.3, 1, 3, 10 and 30 μM. DMSO was used as vehicle control. At 24 hpi, the cell supernatant was harvested, centrifuged to eliminate cell debris and stored at −80 °C for sequencing (described below) and plaque assay following the method of Ojha et al. 2021 [32]. Quantified virus titers were plotted to represent antiviral efficacy. The EC50 (50% effective concentration representing a 50% reduction in virus titer) was determined by extrapolating a dose-response curve using GraphPad Prism 8 and 9.
(§2) We used a Primer ID (PID) library preparation approach with Illumina MiSeq next-generation sequencing (NGS) to examine the mutagenic effects of these drugs on viral RNA allowing deep coverage of the viral population while maintaining a low method error rate (1 in 10,000 nucleotides). We designed cDNA primers targeting a 372 bp region of the RdRp gene within the L segment (referred as L7 in the study), and included a second amplicon covering a 455 bp portion of the M segment (referred as M4 in the study). Each cDNA primer included a block of random nucleotides (11 bases long) as the Primer ID/unique molecular identifier (UMI). […] After gel purification/extraction of the PCR product (Qiagen MinElute Gel Extraction kit), the extracted libraries were quantified using a Qubit fluorimeter and subjected to Agilent TapeStation analysis. For each sequencing run, 24 quantified libraries were pooled for MiSeq 300 base paired-end sequencing at the UNC High Throughput Sequencing Facility. […] Each type of substitution rate was calculated against the wildtype sequence at the sequenced regions. The sequencing date were submitted to the National Center for Biotechnology Information (NCBI) Sequence Read Archive (SRA), accession number is PRJNA1092655.

For data set [2], the system named is LACV. In words: Antiviral efficacy against LACV in Vero cells, virus titer by plaque assay. It is filed as cell-based. Conditions: La Crosse virus, LACV 0.1 MOI, 24 hpi, read-out: EC50 (50% reduction in virus titer). As to the method:
as §1

For data set [3], the system named is LACV. In words: Antiviral efficacy against LACV in hNSCs, virus titer by plaque assay. It is filed as cell-based. The note with it: La Crosse virus, LACV 0.1 MOI, 24 hpi, read-out: EC50 (50% reduction in virus titer). As to the method: as §1
Data set [4] relates to LACV. In words: Antiviral efficacy against LACV in N2a cells, virus titer by plaque assay. The note with it: La Crosse virus, LACV 0.1 MOI, 24 hpi, read-out: EC50 (50% reduction in virus titer). Format: cell-based. As to the method:
as §1

The next data set has as its system Vero cells. Conditions: copied and converted to µM from µg/ml, ref not given; cited from earlier work.
In a further data set the test system is hNSCs. Conditions: copied and converted to µM from µg/ml, ref not given; cited from earlier work.
In data set [5] the test system is LACV. The data set is described as follows: MPID-NGS mutation rate of LACV RNA in brain tissue, IN-infected mice. Conditions: IN infection. It is filed as in vivo, C57BL/6 mice.
Source text: as §2, with “(UMI). Extracted viral RNA was reversed transcribed using SuperScript III (Thermal Fisher) to make cDNA in a single reaction with the two different cDNA primers.” for “(UMI).”, “PRJNA1092655. […]” for “PRJNA1092655.”

The test system of data set [6] is LACV. In words: LACV encephalitis mouse model, IN inoculation. It is filed as in vivo, C57BL/6 mice. How it is done: (§3) Viral RNA was isolated using the Zymo Direct-zol RNA MiniPrep Kit (Zymo Research) per the manufacturer’s directions. First-strand complementary DNA (cDNA) was generated using iScript Reverse Transcriptase (Bio-Rad). qRT-PCR was performed using PowerUp SYBR Green Master Mix (ThermoFischer) on QuantStudio 6 (Applied Biosystems). Primers used for the reaction were synthesized by Integrated DNA Technologies (IDT) to quantify LACV viral RNA, targeting the M segment of the genome: forward primer 5’-[…]-3’, reverse primer 5’-[…]-3’.
(§4) All animal experiments were performed following the protocols 2019-023-E and 2022-019-E approved by the National Institute of Allergy and Infectious Disease/National Institutes of Health/Rocky Mountain Laboratories Institutional Animal Care and Use Committee. For this study, a mix of male and female C57BL/6 mice at 23 to 25 days old were used. Mice were divided evenly and infected with LACV at either 1 × 10^3 pfu by an IP route or 1 x 10^2 pfu by an IN route. IP-infected mice were started on treatment with MOV at either the date of infection or at 3 dpi; the IN-infected mice were started on treatment on the day of infection. MOV was diluted in 10% polyethylene glycol (PEG), 2.5% Cremophor RH40, and 87.5% sterile water which was used as vehicle control. For oral administration, 300 mg/kg of MOV twice a day was given for up to 10 consecutive days using a straight 24-gauge ball-tip disposable feeding needle (Instech). Mice were examined twice daily for 28–30 days for clinical signs of LACV-induced neurologic disease, which mostly involved limb paralysis, ataxia, or repeated seizures. Mice showing one or more of these clinical symptoms were scored as having clinically significant disease and were subsequently euthanized for tissue removal. Occasionally, LACV-infected mice died from the acute seizures. These mice were also scored as having clinically significant disease and underwent tissue removal when possible.
(§5) Brain tissue and lymph nodes were harvested from mice with clinical symptoms (as described above) or at 5 dpi and stored at -80°C. Half of the sagittal section of the brain tissue was used for plaque assays, and the other half for RNA isolation for qRT-PCR and sequencing. For the plaque assay, brain tissues were homogenized in the presence of DMEM using the Bead Mill 24 (Fisher Scientific) homogenizer at 5,300 rpm for 25 seconds. Homogenized samples were centrifuged at 5000 x g for 10 min. Supernatants were then diluted in DMEM containing 10% FBS to 10^−1 to 10^−7 dilutions and subjected to a plaque assay.

The test system of data set [7] is LACV. In words: MPID-NGS mutation rate of LACV RNA in brain tissue, IP-infected mice. Format: in vivo, C57BL/6 mice. From the text:
We used a Primer ID (PID) library preparation approach with Illumina MiSeq next-generation sequencing (NGS) to examine the mutagenic effects of these drugs on viral RNA allowing deep coverage of the viral population while maintaining a low method error rate (1 in 10,000 nucleotides). We designed cDNA primers targeting a 372 bp region of the RdRp gene within the L segment (referred as L7 in the study), and included a second amplicon covering a 455 bp portion of the M segment (referred as M4 in the study). Each cDNA primer included a block of random nucleotides (11 bases long) as the Primer ID/unique molecular identifier (UMI). Extracted viral RNA was reversed transcribed using SuperScript III (Thermal Fisher) to make cDNA in a single reaction with the two different cDNA primers. After bead purification, the cDNA was amplified by PCR using a mixture of forward primers and a universal reverse primer, followed by a second round of PCR to incorporate Illumina sequencing adapters and barcodes within the amplicons. After gel purification/extraction of the PCR product (Qiagen MinElute Gel Extraction kit), the extracted libraries were quantified using a Qubit fluorimeter and subjected to Agilent TapeStation analysis. For each sequencing run, 24 quantified libraries were pooled for MiSeq 300 base paired-end sequencing at the UNC High Throughput Sequencing Facility. Primers used for the library prep can be found in S1 Table. The initial Primer ID data were processed using the Illumina bcl2fastq pipeline (version 2.20.0), and then template consensus sequences (TCSs) were constructed using the tcs pipeline version 2.5.1 (https://primer-id.org/). Each type of substitution rate was calculated against the wildtype sequence at the sequenced regions. The sequencing date were submitted to the National Center for Biotechnology Information (NCBI) Sequence Read Archive (SRA), accession number is PRJNA1092655.
All animal experiments were performed following the protocols 2019-023-E and 2022-019-E approved by the National Institute of Allergy and Infectious Disease/National Institutes of Health/Rocky Mountain Laboratories Institutional Animal Care and Use Committee. For this study, a mix of male and female C57BL/6 mice at 23 to 25 days old were used. Mice were divided evenly and infected with LACV at either 1 × 10^3 pfu by an IP route or 1 x 10^2 pfu by an IN route. […] Mice showing one or more of these clinical symptoms were scored as having clinically significant disease and were subsequently euthanized for tissue removal. […] These mice were also scored as having clinically significant disease and underwent tissue removal when possible.

Data set [8] relates to LACV. The data set is described as follows: LACV encephalitis mouse model, IP inoculation. Format: in vivo, C57BL/6 mice. How it is done: as §3, §4, §5
We used a digital scanner to scan the plaque assay plates. Digitized images were imported into FIJI/ImageJ v1.52n, and pixel calibration values were calculated based on the well diameter and corresponding digitized image. To quantify plaque size (surface area), wells with clearly isolated plaques were selected for segmentation and analysis. The image lookup table for each well was inverted followed by binarization prior to analysis, with a minimum area of 0.39 mm^2 to eliminate false positives due to slight variations in crystal violet staining. The measurements were imported into Microsoft Excel for data compilation, and graphed and analyzed using GraphPad Prism v9.3.1. Analysis of plaque size was done only when the plaque assays for different virus samples were done in parallel.

[9] abbreviates: day 5, MOV from day 0, IP infection.
Where [10] appears, read: oral MOV, started on the day of infection.

pEC50: −log10 of the molar value.

Take `NC(=O)c1nc(F)c[nH]c1=O` [FAV, favipiravir]: the “mutation rate of LACV grown in presence of drug” value with LACV [1] is “did not see a significant increase in mutation rates”. In addition, the pEC50 was 4.23 with LACV [2], 3.69 in the data set with LACV [3] and 4.52 in the data set on LACV [4]. For the same molecule, the results for the CC50 in the data set on Vero cells and with hNSCs were 3340 µM and 1060 µM, respectively.
Consider `CC(C)C(=O)OC[C@H]1O[C@@H](n2ccc(NO)nc2=O)[C@H](O)[C@@H]1O` [MOV, molnupiravir], for which, in the data set with LACV [5], the “increase in C-to-U mutations vs vehicle” value is 4.3 per 10,000 bases and the “increase in G-to-A mutations vs vehicle” value is 4.3 per 10,000 bases. Besides, in the data set with LACV [6] (MOV 300 mg/kg oral twice daily, IN infection, vehicle 7), the “mice with clinical signs out of 13” value was determined as 4. The “reduction in disease vs vehicle” value in the data set with LACV [6] (MOV oral from day of infection, IN infection) is around 50%. In the data set on LACV [6] (clinical mice, IN infection), the “infectious virus titer in the brain vs vehicle (plaque assay)” value is listed as “slightly, but not significantly decreased” and the “viral RNA in the brain vs vehicle (qRT-PCR)” value is “significantly decreased”. The “disease reduced by (abstract)” value with LACV [6] (virus administered intranasally) came out at 23%. In the data set with LACV [7] (brain tissue, IP infection), the “increase in C-to-U transition rate vs vehicle” value is 9.1 per 10,000 bases and the “increase in G-to-A transition rate vs vehicle” value is recorded as 5.2 per 10,000 bases. Further, in the data set on LACV [7] (brain tissue, IP infection, averaged across amplicons), the “increase in total mutation rate of the virus vs vehicle” value is 2.8 per 10,000 bases. Further, the “decrease in viral load in brain tissue per 1 mutation increase per 10,000 nucleotides” value in the data set on LACV [7] (estimate from mutation rate vs LACV copy number) is “approximately 4.4 fold”. The “mice survived through 28-30 dpi” value in the data set with LACV [8] (MOV 300 mg/kg oral twice daily, delayed until 3 dpi, LACV 10^3 pfu IP) worked out at 15%. In addition, the “mice survived to 28-30 dpi” value in the data set with LACV [8] (MOV 300 mg/kg oral twice daily, started on the day of infection, LACV 10^3 pfu IP) was determined as 31%. In addition, in the data set with LACV [8] (setting [9]), the “infectious virus titer in brain tissue vs vehicle (plaque assay)” value was “significantly decreased”, the “viral RNA load in brain tissue vs vehicle (qRT-PCR)” value is on record as “significantly decreased” and the “viral RNA load in lymph nodes vs vehicle (qRT-PCR)” value is “significantly decreased”. Besides, in the data set with LACV [8] (setting [10]), the “decrease in neurological disease development” value is on record as 31% and the “mice survived out of 13” value was 4. Also, the “average plaque size of virus from brain vs virus not exposed to MOV” value in the data set on LACV [8] (virus isolated from brain, IP infection) is “significantly smaller”.
